# Assay: Inhibition of LDHB Activity
# Method: This example describes a human LDHB biochemical assay employed in the characterization of a compound of Formula I in an embodiment of the dislcosure.Test compounds were placed in a Greiner Bio-One (Monroe, N.C.) 1536-well black solid bottom assay plate. 200 mM Tris HCl, pH 7.4, 100 μM EDTA and 0.01% TWEEN-20 , final concentration, was used as the assay buffer. The LDHB reagent was 2 nM Human LDHB (Meridian Life Science, Inc., Memphis, Tenn.), final concentration, in assay buffer. The substrate reagent was 0.13 mM NADH and 0.16 mM sodium pyruvate, final concentration, in assay buffer. The resazurin/diaphorase coupling reagent was 0.037 mM resazurin and 0.133 mg/mL diaphorase, final concentration, in assay buffer.
row,Structure (SMILES),IC50 [nM]
1,"CC1CC=C(c2cc(-c3nn(-c4nc(C(=O)O)cs4)c(CC4CC4)c3Cc3ccc(S(N)(=O)=O)c(F)c3)ccc2F)CC1 (configuration not stated) [US11752138, Compound 101]",< 100
2,"CC1CCCC=C1c1cc(-c2nn(-c3nc(C(=O)O)cs3)c(CC3CC3)c2Cc2ccc(S(N)(=O)=O)c(F)c2)ccc1F (configuration not stated) [US11752138, Compound 103]",< 100
3,"COC1CC=C(c2cc(-c3nn(-c4nc(C(=O)O)cs4)c(CC4CC4)c3Cc3ccc(S(N)(=O)=O)c(F)c3)ccc2F)CC1 (configuration not stated) [US11752138, Compound 104]",< 100
4,"CC1(C)CC=C(c2cc(-c3nn(-c4nc(C(=O)O)cs4)c(CC4CC4)c3Cc3ccc(S(N)(=O)=O)c(F)c3)ccc2F)CC1 [US11752138, Compound 106]",< 100
5,"Cc1ncc(C#Cc2cc(-c3nn(-c4nc(C(=O)O)cs4)c(CC4CC4)c3Cc3ccc(S(N)(=O)=O)c(F)c3)ccc2F)s1 [US11752138, Compound 111]",< 100
6,"Cc1ccc(C#Cc2cccc(-c3nn(-c4nc(C(=O)O)cs4)c(CC4CC4)c3Cc3ccc(S(N)(=O)=O)c(F)c3)c2)s1 [US11752138, Compound 112]",< 100
7,"Cc1ccc(C#Cc2cc(-c3nn(-c4nc(C(=O)O)cs4)c(CCC4CC4)c3Cc3ccc(S(N)(=O)=O)c(F)c3)ccc2F)s1 [US11752138, Compound 113]",< 100
8,"Cc1cnc(C#Cc2cc(-c3nn(-c4nc(C(=O)O)cs4)c(CC4CC4)c3Cc3ccc(S(N)(=O)=O)c(F)c3)ccc2F)s1 [US11752138, Compound 114]",< 100
9,"Cc1ccc(C#Cc2cccc(-c3nn(-c4nc(C(=O)O)cs4)c(CCC4CC4)c3Cc3ccc(S(N)(=O)=O)c(F)c3)c2)s1 [US11752138, Compound 115]",< 100
10,"NS(=O)(=O)c1ccc(Cc2c(-c3cccc(C#Cc4ccc(Cl)s4)c3)nn(-c3nc(C(=O)O)cs3)c2CC2CC2)cc1F [US11752138, Compound 118]",< 100
11,"Cc1ccc(/C=C/c2cccc(-c3nn(-c4nc(C(=O)O)cs4)c(CC4CC4)c3Cc3ccc(S(N)(=O)=O)c(F)c3)c2)s1 [US11752138, Compound 119]",< 100
12,"Cc1ccsc1C#Cc1cccc(-c2nn(-c3nc(C(=O)O)cs3)c(CC3CC3)c2Cc2ccc(S(N)(=O)=O)c(F)c2)c1 [US11752138, Compound 120]",< 100
13,"NS(=O)(=O)c1ccc(Cc2c(-c3cccc(C#Cc4ccc(C(F)F)s4)c3)nn(-c3nc(C(=O)O)cs3)c2CC2CC2)cc1F [US11752138, Compound 121]",< 100
14,"Cc1cnc(C#Cc2cccc(-c3nn(-c4nc(C(=O)O)cs4)c(CC4CC4)c3Cc3ccc(S(N)(=O)=O)c(F)c3)c2)o1 [US11752138, Compound 122]",< 100
15,"Cc1ccc(C#Cc2cccc(-c3nn(-c4nc(C(=O)O)cs4)c(CC4(C)CC4)c3Cc3ccc(S(N)(=O)=O)c(F)c3)c2)s1 [US11752138, Compound 123]",< 100
16,"Cc1cc(C)c(C#Cc2cccc(-c3nn(-c4nc(C(=O)O)cs4)c(CC4CC4)c3Cc3ccc(S(N)(=O)=O)c(F)c3)c2)s1 [US11752138, Compound 125]",< 100
17,"Cc1ccc(C#Cc2cccc(-c3nn(-c4nc(C(=O)O)cs4)c(CC4CC4)c3Cc3ccc(S(N)(=O)=O)c(F)c3)c2)o1 [US11752138, Compound 129]",< 100
18,"Cc1ccc(C2CC2c2cccc(-c3nn(-c4nc(C(=O)O)cs4)c(CC4CC4)c3Cc3ccc(S(N)(=O)=O)c(F)c3)c2)s1 (configuration not stated) [US11752138, Compound 130]",< 100
19,"Cc1ccc(-c2cc(-c3nn(-c4nc(C(=O)O)cs4)c(CC4CC4)c3Cc3ccc(S(N)(=O)=O)c(F)c3)ccc2F)cc1F [US11752138, Compound 137]",< 100

row,Structure (SMILES),IC50 [nM]
1,"CC(=O)c1cc(-c2nn(-c3nc(C(=O)O)cs3)c(CC3CC3)c2Cc2ccc(S(N)(=O)=O)c(F)c2)ccc1F [US11752138, Compound 140]",< 100
2,"COc1ccc(-c2cc(-c3nn(-c4nc(C(=O)O)cs4)c(CC4CC4)c3Cc3ccc(S(N)(=O)=O)c(F)c3)ccc2F)cc1C [US11752138, Compound 150]",< 100
3,"NS(=O)(=O)c1ccc(Cc2c(-c3ccc(F)c(NC(=O)c4ccccc4)c3)nn(-c3nc(C(=O)O)cs3)c2CC2CC2)cc1F [US11752138, Compound 152]",< 100
4,"COc1cc(OC)cc(-c2cc(-c3nn(-c4nc(C(=O)O)cs4)c(CC4CC4)c3Cc3ccc(S(N)(=O)=O)c(F)c3)ccc2F)c1 [US11752138, Compound 153]",< 100
5,"NS(=O)(=O)c1ccc(Cc2c(-c3ccc(F)c(-c4cc(F)cc(F)c4)c3)nn(-c3nc(C(=O)O)cs3)c2CC2CC2)cc1F [US11752138, Compound 156]",< 100
6,"CC(C)N1CC2(CN(c3cc(-c4nn(-c5nc(C(=O)O)cs5)c(CC5CC5)c4Cc4ccc(S(N)(=O)=O)c(F)c4)ccc3F)C2)C1 [US11752138, Compound 158]",< 100
7,"NS(=O)(=O)c1ccc(Cc2c(-c3ccc(F)c(-c4ncc[nH]4)c3)nn(-c3nc(C(=O)O)cs3)c2CC2CC2)cc1F [US11752138, Compound 159]",< 100
8,"Cc1ncc(-c2cc(-c3nn(-c4nc(C(=O)O)cs4)c(CC4CC4)c3Cc3ccc(S(N)(=O)=O)c(F)c3)ccc2F)[nH]1 [US11752138, Compound 161]",< 100
9,"NS(=O)(=O)c1ccc(Cc2c(-c3cccc(-c4ccc(Cl)c(F)c4)c3)nn(-c3nc(C(=O)O)cs3)c2CC2CC2)cc1F [US11752138, Compound 164]",< 100
10,"COc1ccc(-c2cccc(-c3nn(-c4nc(C(=O)O)cs4)c(CC4CC4)c3Cc3ccc(S(N)(=O)=O)c(F)c3)c2)cc1C [US11752138, Compound 165]",< 100
11,"NS(=O)(=O)c1ccc(Cc2c(-c3cccc(-c4ccc(Cl)cc4)c3)nn(-c3nc(C(=O)O)cs3)c2CC2CC2)cc1F [US11752138, Compound 166]",< 100
12,"Cc1ccc(-c2cccc(-c3nn(-c4nc(C(=O)O)cs4)c(CC4CC4)c3Cc3ccc(S(N)(=O)=O)c(F)c3)c2)cc1F [US11752138, Compound 167]",< 100
13,"CC(C)c1ccc(-c2cccc(-c3nn(-c4nc(C(=O)O)cs4)c(CC4CC4)c3Cc3ccc(S(N)(=O)=O)c(F)c3)c2)cc1 [US11752138, Compound 169]",< 100
14,"CC(C)c1cccc(-c2cccc(-c3nn(-c4nc(C(=O)O)cs4)c(CC4CC4)c3Cc3ccc(S(N)(=O)=O)c(F)c3)c2)c1 [US11752138, Compound 173]",< 100
15,"NS(=O)(=O)c1ccc(Cc2c(-c3cccc(-c4cccc(Cl)c4)c3)nn(-c3nc(C(=O)O)cs3)c2CC2CC2)cc1F [US11752138, Compound 175]",< 100
16,"N#Cc1ccc(-c2cccc(-c3nn(-c4nc(C(=O)O)cs4)c(CC4CC4)c3Cc3ccc(S(N)(=O)=O)c(F)c3)c2)cc1 [US11752138, Compound 176]",< 100
17,"CN(C)c1ccc(-c2cccc(-c3nn(-c4nc(C(=O)O)cs4)c(CC4CC4)c3Cc3ccc(S(N)(=O)=O)c(F)c3)c2)cc1 [US11752138, Compound 178]",< 100
18,"Cc1ccc(C#Cc2cc(-c3nn(-c4nc(C(=O)O)cs4)c(CC4CC4)c3Cc3ccc(S(N)(=O)=O)c(F)c3)ccc2F)s1 [US11752138, Compound 249]",< 100

# Source: BindingDB's records for patent US11752138 (Vanderbilt University, 2023)
